In US10517867B2, “Posaconazole derivative, pharmaceutical composition and use thereof” (priority 2016, dated 2019):
Like-named read-outs stand apart in the source and are kept apart here.

How the values were obtained:
[1] = In vitro metabolic stability in human plasma; assay type: in vitro ADME; settings: human, plasma, 37° C., 10 μM compound, read-out: Human plasma T1/2
Method: (§1) This example detects the metabolic stability of the compounds of the present disclosure in human (rat) plasma and intestinal S9 in vitro. In a human (rat) plasma reaction system, 990 μl of human (rat) plasma was taken and incubated at 37° C. for 5 minutes, and 10 μl of the compound mother liquor was used to initiate the reaction. In the human (rat) intestinal S9 stability experiment, in the order shown in Table 2 below, the samples were added and incubated in a 37° C. water bath to initiate the reaction, each sample performed in triplicates. Respectively, at 1 minute, 2 minutes, 5 minutes, 15 minutes, 30 minutes after the reaction began, 100 μL of each was taken and added to a centrifuge tube containing 400 μL of 0° C. precooled internal standard working solution. The reaction was terminated, vortexed and mixed for 1 minute, centrifuged at 10000×g for 10 minutes in a 4° C. precooled high-speed centrifuge, and the supernatant was detected with HPLC. The test results were used to calculate metabolic half-life using WinNonlin (version 6.2 Pharsight, Mountain View, Calif.) with a non-compartmental model.
(§2) Compound stock solution concentration: 1 mM
(§3) Reaction matrix: human (rat) plasma, intestinal S9 purchased from Research Institute for Liver Diseases (Shanghai) Co., Ltd.

[2] = In vitro metabolic stability in human intestine S9; assay type: in vitro ADME; settings: human, 37° C., 10 μM compound, 1 mg/mL S9, NADPH regeneration system, read-out: Human intestine S9 T1/2
Method: as §1, §2, §3

[3] = In vitro metabolic stability in rat plasma; assay type: in vitro ADME; settings: rat, plasma, 37° C., 10 μM compound, read-out: Rat plasma T1/2
Method: as §1, §2, §3

[4] = In vitro metabolic stability in rat intestine S9; assay type: in vitro ADME; settings: rat, 37° C., 10 μM compound, 1 mg/mL S9, NADPH regeneration system, read-out: Rat intestine S9 T1/2
Method: as §1, §2, §3

[5] = Solid stability test (stability chamber, HPLC total impurity); assay type: physicochemical
[6] = Determination of solubility in deionized water (HPLC, external standard); settings: for solubility at 30 min: 25 °C, water, thermodynamic from solid; for Solubility: 25±2° C., after 30 min
[7] = tested on: Candida albicans ATCC10231; assay: Systemic fungal infection in mice, intragastric administration; assay type: in vivo, ICR mice; settings: Candida albicans, ATCC10231, po, 20 mg/kg intragastric once daily for 5 days
Method: ICR mice, weighing 18-22 g, male, provided by Hubei Experimental Animal Center.
Prior to the experiment, a small amount of Candida albicans was picked from an SDA medium kept at 4° C. with an inoculation loop and inoculated into 1 ml YPD culture medium, cultured at 30° C. with 200 rpm shaking and activated for 16 hours, so that the fungus was in the late stage of exponential growth. Counted with a hemocytometer and the fungal solution concentration was adjusted to 1×10^3 to 5×10^3 CFU/ml with RPMI1640 medium. Monoclonal Candida albicans on SDA plate was picked up, inoculated into 1 ml YPD (Yeast Extract Peptone Dextrose Medium, the same below) culture medium, cultured at 35° C., 200 rpm for 16 hours until late exponential growth phase. Candida albicans was inoculated into fresh medium for culturing for 6 hours at 1%, centrifuged at 1000×g for 5 minutes, washed with physiological saline three times until the supernatant was colorless, counted with a hemocytometer, and the cell concentration was adjusted to 5×10^6 cells/ml. A tail vein injection of 0.1 ml/10 g caused a systemic fungal infection in mice. […] A total of 7 days of observations were performed. All dead mice were burned with ethanol.

[8] = solid, packaged, 25° C.±2° C., relative humidity 60%±2%
[9] = 24 h, day 1, read-out: survival rate of mice, day 1
[10] = 48 h, day 2, read-out: survival rate of mice, day 2
[11] = 72 h, day 3, read-out: survival rate of mice, day 3
[12] = 96 h, day 4, read-out: survival rate of mice, day 4
[13] = 120 h, day 5, read-out: survival rate of mice, day 5
[14] = 144 h, day 6, read-out: survival rate of mice, day 6
[15] = 168 h, day 7, read-out: survival rate of mice, day 7

| Structure (SMILES) | half-life at 10 µM [1] [min] | half-life at 10 µM [3] [min] | solubility at 30 min [6] [mg/mL] | Total impurity increment in 30 days [5, 8] [%] | half-life at 10 µM [2] [min] | half-life at 10 µM ([4]; pH 7.4) [min] | responders at 20 mg/kg [7, 9] [%] | responders at 20 mg/kg [7, 10] [%] | responders at 20 mg/kg [7, 11] [%] | responders at 20 mg/kg [7, 12] [%] | responders at 20 mg/kg [7, 13] [%] | responders at 20 mg/kg [7, 14] [%] | responders at 20 mg/kg [7, 15] [%] | other results |
| --- | --- | --- | --- | --- | --- | --- | --- | --- | --- | --- | --- | --- | --- | --- |
| CC[C@@H]([C@H](C)O)n1ncn(-c2ccc(N3CCN(c4ccc(OC[C@@H]5CO[C@@](Cn6c[n+](C(C)OC(=O)OCC[C@@H](N)C(=O)O)cn6)(c6ccc(F)cc6F)C5)cc4)CC3)cc2)c1=O.Cl.[Cl-] (stereo partly drawn) [ST0018] | 18.6 ± 5.63 | 11.5 ± 1.23 |  |  |  |  |  |  |  |  |  |  |  | half-life at 10 µM ([2]; intestinal S9): 50.1 ± 5.98 min; half-life at 10 µM ([4]; intestinal S9, pH 7.4): 45.2 ± 6.95 min |
| CC[C@@H]([C@H](C)O)n1ncn(-c2ccc(N3CCN(c4ccc(OC[C@@H]5CO[C@@](Cn6c[n+](C(C)OC(=O)NC7O[C@H](CO)[C@H](O)[C@H]7OC(=O)CNC)cn6)(c6ccc(F)cc6F)C5)cc4)CC3)cc2)c1=O (stereo partly drawn) [ST0028] |  |  | 35.7 |  |  |  |  |  |  |  |  |  |  | Total impurity increment in 30 days [5]: 1.62% |
| CC[C@@H]([C@H](C)O)n1ncn(-c2ccc(N3CCN(c4ccc(OC[C@@H]5CO[C@@](Cn6c[n+](C(C)OC(=O)N(C)c7ncccc7COC(=O)[C@@H](N)CCCNC)cn6)(c6ccc(F)cc6F)C5)cc4)CC3)cc2)c1=O (stereo partly drawn) [ST0038] |  |  | > 50 |  |  |  |  |  |  |  |  |  |  | Total impurity increment in 30 days [5]: 1.06% |
| CC[C@@H]([C@H](C)O)n1ncn(-c2ccc(N3CCN(c4ccc(OC[C@@H]5CO[C@@](Cn6c[n+](C(C)OC(=O)N(C)c7ncccc7COC(=O)[C@@H](N)CCNC)cn6)(c6ccc(F)cc6F)C5)cc4)CC3)cc2)c1=O (stereo partly drawn) [ST0040] |  |  | > 50 | 1.34 |  |  |  |  |  |  |  |  |  |  |
| CC[C@@H]([C@H](C)O)n1ncn(-c2ccc(N3CCN(c4ccc(OC[C@@H]5CO[C@@](Cn6c[n+](C(C)OC(=O)OCCOP(=O)(O)O)cn6)(c6ccc(F)cc6F)C5)cc4)CC3)cc2)c1=O (stereo partly drawn) [ST0042] |  |  | > 50 | 1.05 |  |  |  |  |  |  |  |  |  |  |
| CC[C@@H]([C@H](C)OC(=O)OC(C)OC(=O)CNP(=O)([O-])[O-])n1ncn(-c2ccc(N3CCN(c4ccc(OC[C@@H]5CO[C@@](Cn6cncn6)(c6ccc(F)cc6F)C5)cc4)CC3)cc2)c1=O.[Na+].[Na+] (stereo partly drawn) [ST0055] |  |  |  | 0.85 |  |  |  |  |  |  |  |  |  | Solubility [6]: 35.4 mg/mL |
| CC[C@@H](C(C)OC(=O)OC(C)OC(=O)CNS(=O)(=O)[O-])n1ncn(-c2ccc(N3CCN(c4ccc(OC[C@@H]5CO[C@@](Cn6cncn6)(c6ccc(F)cc6F)C5)cc4)CC3)cc2)c1=O.[Na+] (stereo partly drawn) [ST0057] |  |  | > 50 | 1.96 |  |  |  |  |  |  |  |  |  |  |
| CC[C@@H]([C@H](C)OC(=O)OCCOCCOP(=O)([O-])[O-])n1ncn(-c2ccc(N3CCN(c4ccc(OC[C@@H]5CO[C@@](Cn6cncn6)(c6ccc(F)cc6F)C5)cc4)CC3)cc2)c1=O.[Na+].[Na+] [ST0060] |  |  |  | 0.83 |  |  |  |  |  |  |  |  |  | Solubility [6]: >50 mg/mL |
| CC[C@@H](C(C)OC(=O)OC(C)OC(=O)CCCCCCCCCOP(=O)([O-])[O-])n1ncn(-c2ccc(N3CCN(c4ccc(OC[C@@H]5CO[C@@](Cn6cncn6)(c6ccc(F)cc6F)C5)cc4)CC3)cc2)c1=O.[Na+].[Na+] (stereo partly drawn) [ST0072] | 18.3 ± 1.97 | 25.6 ± 13 |  |  |  |  |  |  |  |  |  |  |  | half-life at 10 µM ([2]; intestinal S9): 46.8 ± 12.8 min; half-life at 10 µM ([4]; intestinal S9, pH 7.4): 39.9 ± 10.8 min |
| CC[C@@H](C(C)OC(=O)OC(C)OC(=O)CCCCOS(=O)(=O)[O-])n1ncn(-c2ccc(N3CCN(c4ccc(OC[C@@H]5CO[C@@](Cn6cncn6)(c6ccc(F)cc6F)C5)cc4)CC3)cc2)c1=O.[Na+] (stereo partly drawn) [ST0078] | 2.22 ± 0.58 | 2.57 ± 0.74 | > 50 |  | 24.2 ± 8.75 | 28.2 ± 5.65 | 90 | 90 | 80 | 70 | 70 | 70 | 70 |  |
| CC[C@@H](C(C)OC(=O)OC(C)OC(=O)CCCCCOS(=O)(=O)[O-])n1ncn(-c2ccc(N3CCN(c4ccc(OC[C@@H]5CO[C@@](Cn6cncn6)(c6ccc(F)cc6F)C5)cc4)CC3)cc2)c1=O.[Na+] (stereo partly drawn) [ST0079] | 2.56 ± 0.42 | 2.06 ± 0.77 | > 50 |  | 28.7 ± 8.9 | 27.9 ± 11.2 | 90 | 90 | 90 | 80 | 80 | 70 | 70 |  |
| CC[C@@H]([C@H](C)OC(=O)OC(C)OC(=O)Cc1ccc(OS(=O)(=O)[O-])cc1)n1ncn(-c2ccc(N3CCN(c4ccc(OC[C@@H]5CO[C@@](Cn6cncn6)(c6ccc(F)cc6F)C5)cc4)CC3)cc2)c1=O.[Na+] (stereo partly drawn) [ST0080] | 12.8 ± 3.57 | 13.3 ± 4.78 |  |  | 40.3 ± 12.7 | 45.4 ± 11.3 | 90 | 90 | 90 | 80 | 70 | 70 | 60 |  |
| CC[C@@H]([C@H](C)OC(=O)OC(C)OC(=O)CCCCCCCOS(=O)(=O)[O-])n1ncn(-c2ccc(N3CCN(c4ccc(OC[C@@H]5CO[C@@](Cn6cncn6)(c6ccc(F)cc6F)C5)cc4)CC3)cc2)c1=O.[Na+] (stereo partly drawn) [ST0082] | 8.99 ± 2.52 | 9.36 ± 1.56 | > 50 |  | 42.1 ± 13.7 | 52.6 ± 8.69 | 90 | 70 | 70 | 70 | 70 | 70 | 60 |  |
